Test results reported in patent publication US20040234531A1, “Chimeric human leukocyte antigen and epitope-bearing molecules having immunosuppressant activity” (priority 2001, published 2004).

Assays:
[1] = tested on: lymph node cells from GAD65-immunized HLA-DR4 transgenic mice; test: Proliferation and cytokines of lymph node cells from HLA-DR4 transgenic mice immunized with p271-285 GAD65 peptide; type: cell-based, mouse
Method: (§1) FIG. 9A-C. Potency of human DEF molecules in activating murine specific T cells. (A) Lymph node cells (3×10^5) from HLA-DR4 transgenic mice immunized with p271-285 GAD65 peptide were cultured for five dats in the presence of spleen cells (2×10^5) from naive HLA-DR4 mice and 5, 10 or 15 μg/ml of GAD65 peptide or 0.05, 0.5 or 1 μg/ml of DEF-GAD65. (B) Using the same protocol as for (A), cells from mice immunized withp73-90 proinsulin peptide wee stimulated with the same doses of proinsulin peptide or DEF-Pi. […] The proliferative responses are expressed as Δcpm=specific cpm−background cpm.
(§2) HLA-DR*0401 +/+, Abb −/− mice ([…], Taconic, Germantown, N.Y.) expressthe α1β1 domains of HLA-DR*0401 linked to the α2β2 domains of I-E^d, and at the same time are deficient for endogenous MHC class II (1-A^b, I-E^b) molecules (Abb −/−).
(§3) Groups of five mice were immunized in the footpads with either 100 micrograms of p271-285 GAD65 peptide or p73-90 proinsulin peptide in Complete Freund's Adjuvant (“CFA”). Lymph nodes were harvested ten days later and cells from GAD65-immunized mice were stimulated in vitro with various doses of p271-285 synthetic peptide, DEF-GAD65 or empty DEF molecules. […] The amount of peptide carried by the human DEF molecules was normalized on a molar basis, and the immunopotency determined as described in Casares et al., 1999, 3. […]

[2] = tested on: lymph node cells from proinsulin-immunized HLA-DR4 transgenic mice; test: Proliferation and cytokines of lymph node cells from HLA-DR4 transgenic mice immunized with p73-90 proinsulin peptide; type: cell-based, mouse
Method: as §1, §2, §3

Substance	EC50 ([1]; cells from GAD65-immunized mice, read-out: Half-maximal proliferation of stimulated cells) [nM]	cytokine production in culture supernatants ([1]; day 5, ELISA)	EC50 ([2]; cells from proinsulin-immunized mice, read-out: Half-maximal proliferation of stimulated cells) [nM]	cytokine production in culture supernatants ([2]; day 5, ELISA)
GAD65 peptide PRLIAFTSEHSHFSL (SEQ ID NO:10) (listed as Homo sapiens) [p271-285]	1000	also secreted IL-10	–	–
proinsulin peptide GAGSLQPLALEGSLQKRG (SEQ ID NO: 43) (listed as Homo sapiens) [p73-90]	–	–	2500	secreted IL-2 but not IL-10
